Test results published in ChEMBL document CHEMBL1255229, “Novel antimicrobial peptides that exhibit activity against select agents and other drug resistant bacteria” (2010).
Values after ≈ are worked out from the molar mass of the structure shown. Starred links: 1 amine or outer side, 2 acyl side, 3 side chain; linkers in the order of their positions; H or OH if unused. Non-standard residues stand in square brackets, D forms with d. Residues, ends and D or L forms follow the SMILES beside them. ξ: configuration not given here. Pro(3ξ,4ξ-(CH2)4) = O=C(O)[C@H]1NCC2CCCCC21; X1 = O=C([C@@H]1CN([*:1])C2CCCCC21)[*:2]; X3 = O=C(C[C@H]1C2CCCCC2CN1[*:1])[*:2]; Tic = O=C(O)[C@@H]1Cc2ccccc2CN1; Orn = NCCC[C@H](N)C(=O)O; Ahx = NCCCCCC(=O)O; βAla = NCCC(=O)O

How the values were obtained:
Assay type in all cases: functional
Brucella suis = assay: Antimicrobial activity against Brucella suis ATCC 23445 after 24 hrs; conditions: ATCC 23445, 24 h
Brucella melitensis = assay: Antimicrobial activity against Brucella melitensis 16 M after 24 hrs
Bacillus anthracis = assay: Antimicrobial activity against Bacillus anthracis Ames after 24 hrs
Burkholderia mallei = assay: Antimicrobial activity against Burkholderia mallei ATCC 23444 after 24 hrs; conditions: ATCC 23444, 24 h
Brucella abortus = assay: Antimicrobial activity against Brucella abortus 2308 after 24 hrs; conditions: Brucella abortus, 2308, 24 h
Staphylococcus aureus = assay: Antimicrobial activity against methicillin-resistant Staphylococcus aureus ATCC 33591 after 24 hrs; conditions: ATCC 33591, 24 h
Acinetobacter baumannii [1] = assay: Antimicrobial activity against Acinetobacter baumannii ATCC 19606 after 24 hrs; conditions: ATCC 19606 = CIP 70.34 = JCM 6841, 24 h
Francisella tularensis = assay: Antimicrobial activity against Francisella tularensis SCHU-S4 after 24 hrs; conditions: SCHU-S4, 24 h
[2] = system: Burkholderia pseudomallei; assay: Antimicrobial activity against Burkholderia pseudomallei BURK003(1026b) after 24 hrs
Acinetobacter baumannii [3] = assay: Antimicrobial activity against Acinetobacter baumannii WRAIR after 24 hrs
Yersinia pestis = assay: Antimicrobial activity against Yersinia pestis CO92 after 24 hrs; conditions: CO92, 24 h

CC(=O)NCCC(=O)N[C@@H](Cc1ccccc1)C(=O)N1Cc2ccccc2C[C@H]1C(=O)N1C[C@@H](C(=O)NCCC(=O)N[C@@H](CCCCN)C(=O)N2Cc3ccccc3C[C@H]2C(=O)N2C[C@@H](C(=O)NCCC(=O)N[C@@H](Cc3ccccc3)C(=O)N3Cc4ccccc4C[C@H]3C(=O)N3C[C@@H](C(=O)NCCC(=O)N[C@@H](CCCCN)C(=O)N[C@@H](CCCCN)C(=O)N[C@@H](CCCCN)C(=O)N[C@@H](CCCCN)C(=O)N[C@@H](CCCCN)C(N)=O)C4CCCCC43)C3CCCCC32)C2CCCCC21 (stereo not given in full) (Ac-[βAla]F[Tic][X1][βAla]K[Tic][X1][βAla]F[Tic][X1][βAla]KKKKK-NH2) was tested, and the MIC (Brucella suis) was 200 µM (≈ 468 µg/mL), the MIC (Brucella melitensis) was 200 µM (≈ 468 µg/mL) and the MIC (Bacillus anthracis) was 25 µM (≈ 58.4 µg/mL). The MIC (Burkholderia mallei) was 200 µM (≈ 468 µg/mL), the MIC (Brucella abortus) was 200 µM (≈ 468 µg/mL) and the MIC (Staphylococcus aureus) was 200 µM (≈ 468 µg/mL). It also gave an MIC (Acinetobacter baumannii [1]) of 1.5 µM (≈ 3.51 µg/mL), an MIC (Francisella tularensis) of 100 µM (≈ 234 µg/mL) and an MIC [2] of 200 µM (≈ 468 µg/mL). The MIC (Acinetobacter baumannii [3]) was 6.2 µM (≈ 14.5 µg/mL) and the MIC (Yersinia pestis) was 200 µM (≈ 468 µg/mL).
In the case of CC(=O)NCC(=O)N[C@@H](Cc1ccccc1)C(=O)N1Cc2ccccc2C[C@H]1C(=O)N1C[C@@H](C(=O)NCC(=O)N[C@@H](CCCCN)C(=O)N2Cc3ccccc3C[C@H]2C(=O)N2C[C@@H](C(=O)NCC(=O)N[C@@H](Cc3ccccc3)C(=O)N3Cc4ccccc4C[C@H]3C(=O)N3C[C@@H](C(=O)NCC(=O)N[C@@H](CCCCN)C(=O)N4Cc5ccccc5C[C@H]4C(=O)N[C@@H](CCCN)C(=O)N[C@@H](CCCN)C(=O)N[C@@H](CCCN)C(=O)N[C@@H](CCCN)C(N)=O)C4CCCCC43)C3CCCCC32)C2CCCCC21 (stereo not given in full) (Ac-GF[Tic][X1]GK[Tic][X1]GF[Tic][X1]GK[Tic][Orn][Orn][Orn][Orn]-NH2), the MIC (Brucella suis) is reported as 13 µM (≈ 31 µg/mL), the MIC (Brucella melitensis) is reported as 104 µM (≈ 248 µg/mL) and the MIC (Bacillus anthracis) is reported as 0.81 µM (≈ 1.93 µg/mL). For the same compound, the MIC (Burkholderia mallei) was 209 µM (≈ 498 µg/mL), the MIC (Brucella abortus) was 209 µM (≈ 498 µg/mL) and the MIC (Staphylococcus aureus) was 52.4 µM (≈ 125 µg/mL). The MIC (Acinetobacter baumannii [1]) was 6.5 µM (≈ 15.5 µg/mL), the MIC (Francisella tularensis) was 105 µM (≈ 250 µg/mL) and the MIC [2] was 209 µM (≈ 498 µg/mL). The MIC (Acinetobacter baumannii [3]) was 6.5 µM (≈ 15.5 µg/mL) and the MIC (Yersinia pestis) was 26.2 µM (≈ 62.5 µg/mL).
Compound CC(=O)NCCCCCC(=O)N[C@@H](Cc1ccccc1)C(=O)N1Cc2ccccc2C[C@H]1C(=O)N1CC2CCCCC2[C@H]1C(=O)NCCCCCC(=O)N[C@@H](CCCCN)C(=O)N1Cc2ccccc2C[C@H]1C(=O)N1CC2CCCCC2[C@H]1C(=O)NCCCCCC(=O)N[C@@H](Cc1ccccc1)C(=O)N1Cc2ccccc2C[C@H]1C(=O)N1CC2CCCCC2[C@H]1C(=O)NCCCCCC(=O)N[C@@H](CCCCN)C(=O)N1Cc2ccccc2C[C@H]1C(=O)N[C@@H](CCCCN)C(=O)N[C@@H](CCCCN)C(=O)N[C@@H](CCCCN)C(=O)N[C@@H](CCCCN)C(N)=O (stereo not given in full) (Ac-[Ahx]F[Tic][Pro(3ξ,4ξ-(CH2)4)][Ahx]K[Tic][Pro(3ξ,4ξ-(CH2)4)][Ahx]F[Tic][Pro(3ξ,4ξ-(CH2)4)][Ahx]K[Tic]KKKK-NH2) has an MIC (Brucella suis) of 47 µM (≈ 125 µg/mL), an MIC (Brucella melitensis) of 93 µM (≈ 248 µg/mL) and an MIC (Bacillus anthracis) of 1.5 µM (≈ 4 µg/mL). The MIC (Burkholderia mallei) was 187 µM (≈ 498 µg/mL), the MIC (Brucella abortus) was 12 µM (≈ 32 µg/mL) and the MIC (Staphylococcus aureus) was 187 µM (≈ 498 µg/mL). It also gave an MIC (Acinetobacter baumannii [1]) of 5.9 µM (≈ 15.7 µg/mL), an MIC (Francisella tularensis) of 23.4 µM (≈ 62.4 µg/mL) and an MIC [2] of 187 µM (≈ 498 µg/mL). For the same compound, the MIC (Acinetobacter baumannii [3]) was 2.9 µM (≈ 7.73 µg/mL) and the MIC (Yersinia pestis) was 23.4 µM (≈ 62.4 µg/mL).
Compound CC(=O)N[C@@H](CCCCN)C(=O)N[C@@H](CCCCN)C(=O)N[C@@H](CCCCN)C(=O)N[C@@H](CCCCN)C(=O)NCC(=O)N[C@@H](Cc1ccccc1)C(=O)N1Cc2ccccc2C[C@H]1C(=O)N1C[C@@H](C(=O)NCC(=O)N[C@@H](CCCCN)C(=O)N2Cc3ccccc3C[C@H]2C(=O)N2C[C@@H](C(=O)NCC(=O)N[C@@H](Cc3ccccc3)C(=O)N3Cc4ccccc4C[C@H]3C(=O)N3C[C@@H](C(=O)NCC(=O)N[C@@H](CCCCN)C(=O)N4Cc5ccccc5C[C@H]4C(N)=O)C4CCCCC43)C3CCCCC32)C2CCCCC21 (stereo not given in full) (Ac-KKKKGF[Tic][X1]GK[Tic][X1]GF[Tic][X1]GK[Tic]-NH2) has an MIC (Brucella suis) of 25.6 µM (≈ 62.5 µg/mL), an MIC (Brucella melitensis) of 51 µM (≈ 124 µg/mL) and an MIC (Bacillus anthracis) of 0.4 µM (≈ 0.976 µg/mL). It also gave an MIC (Burkholderia mallei) of 204 µM (≈ 498 µg/mL), an MIC (Brucella abortus) of 51 µM (≈ 124 µg/mL) and an MIC (Staphylococcus aureus) of 102 µM (≈ 249 µg/mL). For the same compound, the MIC (Acinetobacter baumannii [1]) was 12.8 µM (≈ 31.2 µg/mL), the MIC (Francisella tularensis) was 51 µM (≈ 124 µg/mL) and the MIC [2] was 204 µM (≈ 498 µg/mL). It also gave an MIC (Acinetobacter baumannii [3]) of 12.8 µM (≈ 31.2 µg/mL) and an MIC (Yersinia pestis) of 13.1 µM (≈ 32 µg/mL).
CC(=O)NCC(=O)N[C@@H](Cc1ccccc1)C(=O)N[C@@H](Cc1ccccc1)C(=O)N1CC2CCCCC2[C@H]1C(=O)NCC(=O)N[C@@H](CCCCN)C(=O)N[C@@H](Cc1ccccc1)C(=O)N1CC2CCCCC2[C@H]1C(=O)NCC(=O)N[C@@H](Cc1ccccc1)C(=O)N[C@@H](Cc1ccccc1)C(=O)N1CC2CCCCC2[C@@H]1CC(=O)N[C@@H](CCCCN)C(=O)N[C@@H](Cc1ccccc1)C(=O)N[C@@H](CCCCN)C(=O)N[C@@H](CCCCN)C(=O)N[C@@H](CCCCN)C(=O)N[C@@H](CCCCN)C(N)=O (stereo not given in full) (Ac-GFF[Pro(3ξ,4ξ-(CH2)4)]GKF[Pro(3ξ,4ξ-(CH2)4)]GFF[X3]KFKKKK-NH2) was tested, and the MIC (Brucella suis) was 26 µM (≈ 61.1 µg/mL), the MIC (Brucella melitensis) was 26 µM (≈ 61.1 µg/mL) and the MIC (Bacillus anthracis) was 0.2 µM (≈ 0.47 µg/mL). It also gave an MIC (Burkholderia mallei) of 208 µM (≈ 489 µg/mL), an MIC (Brucella abortus) of 26 µM (≈ 61.1 µg/mL) and an MIC (Staphylococcus aureus) of 208 µM (≈ 489 µg/mL). For the same compound, the MIC (Acinetobacter baumannii [1]) was 3.2 µM (≈ 7.52 µg/mL), the MIC (Francisella tularensis) was 0.01 µM (≈ 0.0235 µg/mL) and the MIC [2] was 208 µM (≈ 489 µg/mL). The MIC (Acinetobacter baumannii [3]) was 3.2 µM (≈ 7.52 µg/mL) and the MIC (Yersinia pestis) was 3.2 µM (≈ 7.52 µg/mL).
